Source: paper PMC10406726, “Development, scrutiny, and modulation of transient reporter gene assays of the xenobiotic metabolism pathway in zebrafish hepatocytes” (Cell Biology and Toxicology, 2021)
Read-outs that look alike come from different tables or passages of the source.

Columns and labels:
[1] = target: ESR1 (estrogen receptor 1); parameters: method as in ToxCast database, CompTox dashboard; details: TOX21_ERa_LUC_VM7_Agonist; ref ToxCast database, CompTox dashboard; cited from earlier work
[2] = system: Nrf2 transcription factor activation (Nrf2/Keap1/ARE); assay: Nrf2-responsive transient DLR reporter gene assay (pGL4.37 + pRL-CMV) in ZFL cells; assay type: cell-based, zebrafish (Danio rerio); details: for EC50: 4PL regression, normalized induction
From the text: A transient reporter gene assay for the assessment of oxidative stress in the ZFL cell line had been described previously (Lungu-Mitea and Lundqvist [2020]), and was applied here in an identical manner. Please consult the respective chapter within the SI for more details.
ZFL cells were also transiently co-transfected with the Nrf2-responsive reporter vector pGL4.37 and the normalization vector pRL-CMV, as described in (Lungu-Mitea and Lundqvist [2020]). The transcription factor Nrf2 is a central regulator of the oxidative stress response pathways (Nrf2/Keap1/ARE) (Itoh et al. [2004]) and a keystone in the regulation of oxidative stress detoxification, metabolism, and induction of related phase-II enzymes (e.g., GST, NQO1, HO-1). Detailed descriptions, results, and discussion are given in the respective section of the SI (p. 12–14; Figs. S10 + 11, Table S4). […]
132 To undermine the “maisonette” squelching hypothesis, Comptox data regarding the induction of cellular
133 stress response pathways were backed up by empirical data in ZFL cell lines. Therefore, ZFL cells were
134 transiently co-transfected with the Nrf2-responsive reporter vector pGL4.37 and the normalization
135 vector pRL-CMV, as described in (Lungu-Mitea and Lundqvist 2020). Experimental design, data
136 handling, and statistical evaluation were identical to procedures described in the main manuscript. The
137 transcription factor Nrf2 is a central regulator of the oxidative stress response pathways
138 (Nrf2/Keap1/ARE) (Itoh et al. 2004) and a keystone in the regulation of oxidative stress detoxification,
139 metabolism, and induction of related phase-II enzymes (e.g. GST, NQO1, HO-1).
141 S10). […] Statistically
143 of the Nrf2-related luciferase signal.
144 optical inspection under the microscope ( not illustrated), leading to artefact effects in the luciferase
145 measurement. Therefore, specific points were excluded from the analysis and deemphasized in fig. S10.
146 Possibly, compound aggregation led to a flattening of the cytotoxicity curve in fig. S10. Compound
147 aggregation at higher molar concentratio ns has been discussed in (Owen et al. 2012, 2014) .
148 Concentrations up to cytotoxicity were used to derive a sigmoidal concentration -response relationship
149 (fig. S11). The computed parameters are depicted in tab. S4.

ARE (channel 1) = system: ARE (channel 1); parameters: method as in ToxCast database, CompTox dashboard; details: TOX21_ARE_BLA_Agonist_ch1; ref ToxCast database, CompTox dashboard; cited from earlier work
[3] = system: NFE2L2 (nuclear factor, erythroid 2-like 2); parameters: method as in ToxCast database, CompTox dashboard; details: ATG_NRF2_ARE_CIS_up; ref ToxCast database, CompTox dashboard; cited from earlier work
[4] = system: PPARG (peroxisome proliferator-activated receptor gamma); parameters: method as in ToxCast database, CompTox dashboard; details: ATG_PPARg_TRANS_up; ref ToxCast database, CompTox dashboard; cited from earlier work
[5] = target: ESR1 (estrogen receptor 1); parameters: method as in ToxCast database, CompTox dashboard; details: ATG_ERa_TRANS_up; ref ToxCast database, CompTox dashboard; cited from earlier work
ARE (channel 2) = system: ARE (channel 2); parameters: method as in ToxCast database, CompTox dashboard; details: TOX21_ARE_BLA_Agonist_ch2; ref ToxCast database, CompTox dashboard; cited from earlier work
[6] = target: ESRRA (estrogen-related receptor alpha); parameters: method as in ToxCast database, CompTox dashboard; details: TOX21_PGC_ERR_Agonist; ref ToxCast database, CompTox dashboard; cited from earlier work
[7] = system: NR1I3 (nuclear receptor subfamily 1, group I, member 3); parameters: method as in ToxCast database, CompTox dashboard; details: TOX21_CAR_Agonist; ref ToxCast database, CompTox dashboard; cited from earlier work
[8] = system: NR1I2 (nuclear receptor subfamily 1, group I, member 2); parameters: method as in ToxCast database, CompTox dashboard; details: ATG_PXR_TRANS_up; ref ToxCast database, CompTox dashboard; cited from earlier work
[9] = system: FOS (FBJ murine osteosarcoma viral oncogene homolog); parameters: method as in ToxCast database, CompTox dashboard; details: ATG_AP_1_CIS_up; ref ToxCast database, CompTox dashboard; cited from earlier work
[10] = system: AHR (aryl hydrocarbon receptor); parameters: method as in ToxCast database, CompTox dashboard; details: TOX21_AhR_LUC_Agonist; ref ToxCast database, CompTox dashboard; cited from earlier work
AR (androgen receptor) = target: AR (androgen receptor); parameters: method as in ToxCast database, CompTox dashboard; details: TOX21_AR_LUC_MDAKB2_Agonist_3uM_Nilutamide; ref ToxCast database, CompTox dashboard; cited from earlier work
[11] = target: VDR (vitamin D (1,25-dihydroxyvitamin D3) receptor); parameters: method as in ToxCast database, CompTox dashboard; details: ATG_VDRE_CIS_up; ref ToxCast database, CompTox dashboard; cited from earlier work
[12] = target: ESR1 (estrogen receptor 1); parameters: method as in ToxCast database, CompTox dashboard; details: ATG_ERE_CIS_up; ref ToxCast database, CompTox dashboard; cited from earlier work
GLI3 (DNA binding) = target: GLI3 (DNA binding); parameters: method as in ToxCast database, CompTox dashboard; details: TOX21_SSH_3T3_GLI3_Agonist; ref ToxCast database, CompTox dashboard; cited from earlier work
ZFL cells = system: ZFL cells; parameters: method as in Eknefelt [2018]; details: TCDD; same cellular context, identical exposure concentrations; ref Eknefelt [2018]; cited from earlier work

In the case of `O=c1cc(-c2ccccc2)oc2ccc3ccccc3c12` [BNF, β-naphthoflavone], the AC50 [1] is given as 5.15 µM, the “LOEC of Nrf2 induction” value ([2]; BNF exposure range of 3 pM to 1 mM, pGL4.37 + pRL-CMV) is given as 30 nM and the “Slope (CI) of 4PL regression” value ([2]; BNF, pGL4.37 + pRL-CMV) is given as 0.77 (0.43-1.62). For the same molecule, the “concentration of maximal Nrf2 induction” value ([2]; BNF, pGL4.37 + pRL-CMV (Fig. S10)) was […], the EC50 ([2]; BNF, pGL4.37 + pRL-CMV) was 9.7 nM and the EC50 ([2]; Danio rerio, BNF, pGL4.37 + pRL-CMV) was 9.68 nM. The “maximal Nrf2 induction” value ([2]; at 100 nM BNF, pGL4.37 + pRL-CMV) was 3.4 fold, the AC50 (ARE (channel 1)) was 837 nM and the AC50 [3] was 157 nM. For the same molecule, the AC50 [4] was 750 nM, the AC50 [5] was 2860 nM and the AC50 (ARE (channel 2)) was 1220 nM. For the same molecule, the AC50 [6] was 189 nM, the AC50 [7] was 6.07 µM and the AC50 [8] was 6.58 µM. The AC50 [9] was 156 nM, the AC50 [10] was […] and the AC50 (AR (androgen receptor)) was 3.69 µM. For the same molecule, the AC50 [11] was 4.28 µM, the AC50 [12] was 1060 nM and the AC50 (GLI3 (DNA binding)) was 33.9 nM.

For `Clc1cc2c(cc1Cl)Oc1cc(Cl)c(Cl)cc1O2` [TCDD, 2,3,7,8-tetrachlorodibenzo-p-dioxin], the “cytotoxicity, historical data” value (ZFL cells) is listed as “no TCDD-induced cytotoxicity”.
